From patent publication US9440980B2, “Remedy for diabetes” (EA Pharma Co., Ltd., priority 2007, dated 2016)

Experiments:
isolated adipocytes = assay: Measurement of glucose uptake activity in isolated rat adipocytes (2-[14C]-deoxy-D-glucose); type: cell-based; conditions: Adipocyte, glucose uptake of insulin (100 nM) = 100%
Description: A male Wistar rat was decapitated and exsanguinated, and then a paratesticular adipose tissue was resected therefrom after laparotomy. The tissue was cut in a KRH (Krebs-Ringer HEPES: 130 mM NaCl, 4.7 mM KCl, 1.2 mM KH2PO4, 1.2 mM MgSO4, 1 mM CaCl2, 25 mM HEPES) containing a BSA (bovine serum albumin), a collagenase (type I) was added thereto, and the resultant was subjected to a digestive treatment for about 40 minutes to obtain isolated adipocytes. The buffer was replaced to remove the collagenase, and a 2% BSA/KRH solution was added thereto, whereby the adipocytes were floated again to obtain a adipocytes suspension.
The glucose uptake activity of a test substance compound was evaluated in accordance with Non-Patent Document 14: Simpson et al., Annual Review of Biochemistry, 55, 1059, (1986). Thus, 200 μl of the adipocytes suspension was dispensed into each polystyrene test tube, 100 μl of a solution containing the test substance compound was added thereto, and the test tube was shaken and incubated at 37° C. for 30 minutes. The glucose uptake activity was evaluated by measuring the amount of 2-[^14C(U)]-deoxy-D-glucose uptaken per unit time. Thus, the 2-[^14C(U)]-deoxy-D-glucose was added to the preincubated adipocytes suspension at the final concentration of 0.5 μCi/sample, and after 5 minutes, cytochalasin B was added thereto at the final concentration of 10 μM to stop the glucose uptake. Dinonyl phthalate was superposed over the solution, the resultant was centrifuged to separate the fat cells from the buffer, and the amount of the 2-[^14C(U)]-deoxy-D-glucose contained in the fat cell layer was measured by a liquid scintillation counter, whereby the uptaken glucose amount was determined. The glucose uptake of insulin (100 nM) was evaluated in the same manner and considered to be 100%, and thus the EC50 value of each compound was obtained.

Gβ1γ2-Myc = molecular target: T1, Gβ1γ2-Myc (Homo sapiens, UniProt P62873); assay: Gβ binding ability using Gβ-expressing insect cell extract solution (PD10 method); conditions: binding strength Compound 1>Compound 3>Compound 6, FIG. 8
T1 construct: made in house; host or cells: Sf21 insect cells (baculovirus), unpurified Triton X-100 extract
Description: The PD10 method was carried out as follows. To a microtube were added 250 μl of an RBA buffer, 100 μl of an RBA buffer containing 0 or 500 μM of the unlabeled Compound 1, 100 μl of the above extract solution, and 50 μl of an RBA buffer containing 2.5 μM of the ^3H-labeled Compound 1 successively, and the resultant mixture was stirred and left at room temperature for 1 hour. The entire reaction solution (0.5 ml) was added to a PD10 column sufficiently substituted with the RBA buffer, 2 ml of the RBA buffer was passed through the PD10 column, and thereafter further eluate by 1.5 ml of the RBA buffer was collected as a high-molecular fraction containing the protein, 15 ml of a liquid scintillator was added thereto, and the amount of the ^3H-labeled Compound 1 contained in the high-molecular fraction was measured by a scintillation counter. The count of the sample added with the unlabeled Compound 1 at the final concentration of 100 μM was considered to correspond to the nonspecific binding, the difference between the nonspecific binding count and the count of the sample not added with the unlabeled Compound 1 was considered to correspond to the specific binding, and thus the amount of the binding protein contained in the extract solution was evaluated.
Using the frozen insect cell Sf21 expressing the Gβ1, Myc-Gγ2, and Gαi1-His prepared in Example 19 (8), 10^7 cells were melted and suspended in 1.3 ml of an RBA buffer containing 1% Triton X-100 (75 mM Tris-HCl, 12.5 mM MgCl2, 2 mM EDTA, pH 7.4). […]
The inhibitory activity against the binding of the ^3H-labeled Compound 1 to the Gβ1γ2-Myc was considered to correspond to the activity of the compounds for binding to the Gβ1γ2-Myc. Thus, the activity of each of Compounds 1, 3, and 6 for binding to the Gβ1γ2-Myc was measured using the above extract solution. The activity of the ^3H-labeled Compound 1 for binding to the protein contained in the extract solution was measured by the PD10 method described in Example 15 (1). […]

[1] = tested on: Compound 6-induced Akt phosphorylation in differentiated 3T3L1 cell; assay: Inhibition of Compound 6-induced Akt phosphorylation in differentiated 3T3L1 adipocytes; type: cell-based; conditions: 15 minutes pretreatment, FIG. 12
Description: The inhibitory activity of the inhibitor TGX-115 specific to the phosphoinositide 3-kinase (PI3-kinase) β and δ against Compound 6-induced Akt phosphorylation was measured by using a differentiated 3T3L1 cell converted to a adipocyte as follows. […] The differentiated 3T3L1 cells were seeded in a Dulbecco MEM medium containing 10% FCS in a 96-well plate (Collagen type I coated plate, IWAKI, Product No. 4860-010) at a ratio of 4×10^4 cells/well, cultured at 37° C. for about 16 hours in the presence of 5% CO2 to achieve sufficient attachment, and the medium was removed by suction. […] Then, 10 μl of a 0.1% BSA/Dulbecco MEM medium containing 3 mM of Compound 6 was added thereto, and a treatment was carried out at 37° C. for 10 minutes in the presence of 5% CO2.

HLF cell membrane = assay: Binding assay of 3H-labeled Compound 1 using HLF cell membrane; design: species or system human; conditions: FIG. 4
Description: A cell membrane of a human liver-derived HLF cell was prepared as follows. HLF cells were approximately confluently cultured in a Dulbecco MEM medium containing 10% FCS in a cell culture dish having a diameter of 15 cm. The HLF cells cultured in 30 dishes were scraped by a cell scraper in the presence of an HMEE buffer (20 mM HEPES-KOH, 1 mM EDTA, 1 mM EGTA, and 2 mM MgCl2) to obtain about 30 ml of a cell suspension. The suspension was homogenized using a TEFLON (registered trademark) homogenizer (ice temperature, 1000 rpm, 15 stroke) and centrifuged at a low rate (1500 rpm, 5 minutes). […]
The binding assay of the ^3H-labeled Compound 1 on thus obtained cell membrane was carried out as follows. […] The filter plate was well washed with a TBS (20 mM Tris-HCl, 0.15 M NaCl, pH 7.4) containing 0.05% Twee-20 and sufficiently dried, 30 μl of a liquid scintillator (Microscinti 0, Packard) was added to the filter plate, and the ^3H count was measured by Topcount (Packard). […]
The inhibitory activity of each of the probe molecule compounds synthesized in Examples 2 and 7 to 10 against the binding of the ^3H-labeled Compound 1 to the HLF cell membrane was measured by the method described in Example 14 to confirm whether the probe compound could be bound to the binding protein like Compound 1. […]

T1 sequence (P62873 whole entry): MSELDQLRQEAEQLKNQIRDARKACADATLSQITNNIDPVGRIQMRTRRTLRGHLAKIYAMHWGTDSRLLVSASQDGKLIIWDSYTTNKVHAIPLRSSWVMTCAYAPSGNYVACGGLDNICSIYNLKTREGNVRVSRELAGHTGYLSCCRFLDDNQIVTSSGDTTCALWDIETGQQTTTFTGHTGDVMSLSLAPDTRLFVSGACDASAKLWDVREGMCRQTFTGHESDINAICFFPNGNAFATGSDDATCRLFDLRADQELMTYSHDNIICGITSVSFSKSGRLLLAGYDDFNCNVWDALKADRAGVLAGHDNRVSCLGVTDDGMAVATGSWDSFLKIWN
T1 sequence (P59768 with tags, fused parts or gaps partner limits assumed): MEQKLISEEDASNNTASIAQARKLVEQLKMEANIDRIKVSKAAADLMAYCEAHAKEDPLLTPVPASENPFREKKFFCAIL

Row | Compound | EC50 (isolated adipocytes) [µM] | also measured
1 | O=C1NCC2=C1[C@@H](c1csc3ccccc13)N(C(=O)CCc1ccccn1)[C@@H]1CCCC[C@H]1N2 [Compound 4] | 0.006 | –
2 | COc1ccccc1[C@@H]1C2=C(CNC2=O)N[C@@H]2CCCC[C@H]2N1C(=O)CCc1nccs1 [Compound 3] | 0.014 | binding to Gβ1γ2-Myc (inhibition of 3H-labeled Compound 1 binding) (Gβ1γ2-Myc): could be bound to the Gβγ2-Myc
3 | O=C1NCC2=C1[C@@H](c1cccc3ccoc13)N(C(=O)C1CC1)[C@@H]1CCCC[C@H]1N2 [Compound 5] | 1 | –
4 | Cc1ccccc1Oc1cccc2c(=O)cc(N3CCOCC3)[nH]c12 [TGX-115] | – | inhibition of Akt phosphorylation by Compound 6 [1]: clearly inhibited
5 | NCCOCCOc1ccccc1[C@@H]1C2=C(CNC2=O)N[C@@H]2CCCC[C@H]2N1C(=O)CCc1ccccn1 [Compound 7] | – | inhibitory activity against the binding of the 3H-labeled Compound 1 to the HLF cell membrane (HLF cell membrane): equal to Compound 2
